One data set has as its system firefly luciferase. Particulars: cationic surfactant; cited from earlier work.
Data set [1] in a line: Fluoride-triggered chemiluminescence of silyl-protected dioxetane. The source says: (§1) However, the chemiluminescent decomposition of this dioxetane can be conveniently triggered at room temperature by removal of the silyl-protecting with fluoride ion to generate the unstable, aryloxide form which cleaves to yield intense blue light.
Data set [2] deals with Alkaline Phosphatase from Bovine Intestinal Mucosa. Nature of the data set: Alkaline phosphatase triggering of xanthenone-derived phosphate dioxetane. The data set is classed as biochemical. Here is the method:
Triggering experiments were conducted using alkaline phosphatase from bovine intestinal mucosa suspension of 5.3 mg of protein (1100 units/mg protein) per mL in 3.2 M (NH4)2 SO4 ]and the phosphate-protected dioxetane at pH 10.3 in 0.75 M 2-amino-2-methyl- 1-propanol buffer. […]. […] The rate of decay of the emission is a function of enzyme concentration while the total light emission is independent of the enzyme concentration because of turnover of the enzyme. The chemiluminescence spectrum for the phosphatase-catalyzed decomposition was obtained at room temperature in the buffer solution.

Data set [3] is classed as physicochemical.
Data set [4] in a line: Fluorescence of ester cleavage product / self-quenching of fluorescer. The data set is classed as physicochemical.
Excerpt: as §1
In general the molar ratio of the dioxetane to fluorescent compound is between about 1,000 to 1 and 1 to 1 whether in solution or in a solid composition.

The format of data set [5] is physicochemical. Here is the method: Rates for thermal decomposition of the stable dioxetanes were monitored by the decay of chemiluminescence of aerated solutions. A cylindrical Pyrex vial equipped with magnetic stir bar was filled with 3-4 mL of the reaction solvent, sealed with a Teflon-lined screw cap and placed in the thermostatted sample block of the chemiluminescence-measuring luminometer. Temperature control was provided by an external circulating water bath. Appropriate values for the instrument gain and optical slit size were selected. […]. The vial was sealed with a Teflon-lined screw cap to prevent evaporation when high temperatures were used. Measurement of the signal was begun by opening the shutter. The chemiluminescent decay was generally recorded for at least three half-lives. Calculation of the first-order rate constant (k) from the In (Intensity) vs. time data was performed by a computer program utilizing a standard least-squares treatment. The correlation coefficient (r) was typically at least 0.999 and k varied less than 5% between replicate samples.
Activation parameters for decomposition of the dioxetanes were calculated from plots of In k vs. 1/T (Arrhenius eq.) or In k/t vs. 1/T (Eyring eq.) by a standard least-squares linear regression analysis.
Activation Energies for Thermal Decomposition of Dioxetanes
This is another data set of the same source.

The next data set deals with Urease. Nature of the data set: Triggering of hydroxy-substituted dioxetane 2a with urease in fluorescent micelles. The data set is classed as biochemical. Particulars: 10 μL of 3×10^-3 M 2a, CTAB and 3, room temperature. Here is the method:
5. Enzymatic Triggering of Hydroxy-Substituted Dioxetane 2a with Urease in the Prescence of Fluorescent Micelles. A solution was prepared using 160 mg of CTAB and 12.4 mg of fluorescein surfactant 3 in 200 mL of distilled water. A urea solution was made by dissolving 200 mg of urea in 100 mL of distilled water with EDTA added to give a final concentration of 0.4 mM. The substrate solution for the urease experiments was obtained by mixing 10mL of each stock solution.
Experiments were carried out with urease (Sigma) by incubation at room temperature for periods of 0.5 to 2 hours. […] The intensity of the luminescence provided a measure of the concentration of urease.

Data set [6] in a line: Base-triggered chemiluminescence of dioxetanes 2a/2b in DMSO, water, CTAB micelles and micelles with fluorescent co-surfactant. The text has this: The chemiluminescence quantum yield (.PHI.CL) for the decomposition of dioxetanes is defined as the ratio of einsteins of chemiluminescence emitted to moles of dioxetane decomposed. Sufficient energy is released during the reaction from the reaction enthalpy (ΔHR) plus the Arrhenius activation energy (Ea) to populate the singlet excited state of one of the carbonyl cleavage products. Therefore, the maximum quantum yield is 1.0. Another parameter of interest is the chemiexcitation quantum yield (.PHI.CE) which is defined as the ratio of excited states formed to dioxetane decomposed. The chemiexcitation quantum yield is related to the chemiluminescence quantum yield via the fluorescence quantum yield of the dioxetane cleavage (.PHI.F) through the equation: .phi.CL =.phi.CE X .phi.F.
The same procedure as those employed in the measurement of the decay kinetics was used for the determination of chemiluminescence quantum yields with the following modifications. An accurately measured aliquot of a dioxetane stock solution of known concentration was added to 3 mL of the pre-thermostatted organic solvent or aqueous buffer. The reaction was then triggered by adding the appropriate chemical reagent or enzyme. The total light intensity was integrated by a photon-counting luminometer using an RCA A-31034A gallium-arsenide PMT cooled to -78° C.
Spectra of the chemiluminescence from chemically or enzymatcally triggered dioxetanes were obtained by conducting the reaction in a 1-cm square quartz cuvette in the sample compartment of a Spex Fluorolog spectrofluorometer at ambient temperature. Correction for the decay of the chemiluminescence intensity during the wavelength scan was made by accumulating the spectrum in a ratio mode so that the observed spectrum was divided by the signal from an auxiliary detector (EMI 9781B) which measures the total signal as a function of time. The monochromator bandpass was typically 18 nm. For weakly emitting samples, several identical scans were performed and added together to improve the signal-to-noise ratio.
1. Triggering the Chemiluminescence of Hydroxy-Substituted Dioxetane 2a with Base.
2. […] Cationic surfactants such as cetyltrimethylammonium bromide (CTAB) can be used to increase rates for chemical triggering of chemiluminescence from appropriately substituted dioxetanes in aqueous solution. […] The dioxetane is solubilized in the micelles formed by the surfactant and NaOH is added to initiate the chemiluminescence. […] Typically, the experiments were carried out with [2b]=9.1×10^-5 M, [CTAB]=2×10^-3 M, and [OH^- ]=9.1×10^-5 M at 37° C.
Similar experiments were conducted with the benzothiazamide surfactant 4. […] Enzymatic Triggering of Phosphate-Substituted Dioxetane 2c.

[7] abbreviates: thermal decomposition in xylene.

Read-outs that look alike come from different tables or passages of the source.

As for `CCCCCCCCCCCCCCCC[N+](C)(C)C.[Br-]` [CTAB, cetyltrimethylammonium bromide], the “inhibition of the catalytic activity of the luciferase” value with firefly luciferase is “complete inhibition”.

In the case of `COC1(c2cccc(O[Si](C)(C)C(C)(C)C)c2)OOC12C1CC3CC(C1)CC2C3` (stereo not drawn), in data set [1], the chemiluminescence efficiency was found to be 25% and the chemiluminescence quantum yield is listed as 0.25. Further, the “efficiency for the formation of the singlet excited ester” value in [1] (corrected for fluorescence quantum yield of the ester) worked out at 57%. Further, the “maximum of the chemiluminescence spectrum” value in data set [1] (fluoride, DMSO) amounted to 470 nm. Further, the “decomposition on the laboratory bench” value (in o-xylene, several months) is recorded as “no detectable decomposition”. The molecule further registered an activation energy (thermal decomposition) of 28.4 kcal/mol.

Take `O=P(O)(O)Oc1ccc2c(c1)Oc1ccccc1C21OOC12C1CC3CC(C1)CC2C3` (stereo not drawn): in data set [2] (4.2×10^-6 M dioxetane, 1.8 μg/mL protein, pH 10.3, 37° C.), the “period of chemiluminescence decay” value is listed as 3 min. In data set [2] (pH 10.3, 37° C.), the “total light emission vs dioxetane concentration” value was “linearly dependent on the dioxetane concentration”. The “background luminescence from non-enzymatic hydrolysis, of enzymatic” value in data set [2] (pH 10.3 buffer, over 3 min, 37° C.) turned out to be 0.2%. Further, in [3] (25° C.), the half-life was 4380 days. Moreover, the “spontaneous decomposition in aqueous buffers” value in data set [3] (aqueous buffers) is “very slow spontaneous decomposition”. Further, the activation energy in data set [3] (thermal) was 30.7 kcal/mol.

Turning to `COC(=O)c1cccc(O)c1` [methyl 3-hydroxylbenzoate], the “fluorescence quantum yield (.PHI.^F)” value in data set [4] (ester cleavage product under conditions of fluoride triggering) came to 0.44.

For the molecule `CCCCCCCCCCCCCC(=O)Nc1ccc2c(c1)C(=O)OC21c2ccc(O)cc2Oc2cc(O)ccc21` [compound 3], the “self-quenching when used alone in solution” value in data set [4] (no CTAB) is “quenches itself when used alone in solution”.

Regarding `COC1(c2cccc(O)c2)OOC12C1CC3CC(C1)CC2C3` (stereo not drawn) [2a, 4-(3-Hydroxyphenyl)-4-methoxyspiro[1,2-dioxetane-3,2'-adamantane]], in [5] (in xylene, 25° C., read-out: t1/2 at 25° C. (converted)), the half-life was 1500 days. For the same molecule, in data set [5] (setting [7]), the Ea was 28.3 and the “Log A” value is 12.5. Also, the “k(sec^-1) at 25° C.” value in data set [5] (thermal decomposition in xylene, 25° C.) came to 5.38e-09 s⁻¹. For the same molecule, the “luminescence after incubation with urease” value with Urease was “produced chemiluminescence”. For the same molecule, in [6] (10^-4 M, excess tetra-n-butylammonium hydroxide, DMSO, room temperature), the “period of chemiluminescence decay” value is reported as “several minutes”. For the same molecule, the “chemiluminescence quantum yield (.PHI.CL)” value in data set [6] (base in DMSO) came to 0.25. Besides, the “light yield (chemiluminescence quantum yield)” value in data set [6] (base in water) was 8.9×10^-6. The “emission maximum for the chemiluminescence” value in data set [6] (tetra-n-butylammonium hydroxide in DMSO, room temperature) is given as 470 nm.

The values above are taken from patent US4959182A, “Method and compositions providing enhanced chemiluminescence from 1,2-dioxetanes” (priority 1989, dated 1990).
